Results on three compounds are retold here after PMC8143291, “Cytotoxicity and Microbicidal Activity of Commonly Used Organic Solvents: A Comparative Study and Application to a Standardized Extract from Vaccinium macrocarpon” (Toxics, 2021).

Common to all, as to assay: Broth microdilution MIC/MBC
Assay [1] relates to E. faecalis ATCC 29212. The class given is cell-based, Enterococcus faecalis. The note with it: 24 h exposure; v/v; n = 3. An excerpt:
(§1) The bacterial strains used for AST of the solvents included: Staphylococcus aureus (ATCC 29213), Staphylococcus aureus—MRSA (NBIMCC 8327—resistant to methicillin and oxacillin, National Bulgarian Collection for Industrial Microorganisms and Cell Cultures, Sofia, Bulgaria), Streptococcus pyogenes (SAIMC 10535, Collection of the Stephan Angeloff Institute of Microbiology, Sofia, Bulgaria), Enterococcus faecalis (ATCC 29212), Escherichia coli (ATCC 35218), Pseudomonas aeruginosa (ATCC 27853), and Yersinia enterocolitica (IP864 O:3, Collection of Institut Pasteur, Paris, France). The selected strains are the most often investigated ones in the AST research studies in correspondence with the standard ISO 20776-1 Part 1: Reference method for testing the in vitro activity of antimicrobial agents against rapidly growing aerobic bacteria involved in infectious diseases. The antimycotic activity was tested on Candida albicans (CBS 562, Utrecht, The Netherlands). The strains S. aureus, MRSA, E. coli and E. faecalis were grown on Mueller–Hinton broth/agar (MHB/MHA); S. pyogenes, P. aeruginosa, Y. enterocolitica and C. albicans were grown on brain heart infusion (BHI) broth/agar; E. coli was also grown on Luria–Bertani broth/agar (LBB/LBA).
(§2) The minimum inhibitory concentration (MIC) for each solvent was estimated by the broth microdilution method (BMD) in 96-well microplates, following ISO 20776/1-2006 [3] and CLSI protocols. Briefly, a standardized bacterial inoculum was prepared from each bacterial species by suspending 3–4 colonies from a pure culture into 4 mL sterile saline. The turbidity of the inocula was adjusted to McFarland 0.5 (1.0 × 10^8 CFU/mL, λ = 600 nm), and 50 µL were resuspended in 10 mL of the appropriate culture medium for each strain. The bacterial inocula were added to microtiter trays containing equivalent volumes of medium loaded with the relevant solvent in concentrations varying from 0.025 to 25% volume fraction. The final volume of each sample was 100 µL/well. The plates were incubated at 37 °C for 24 h. The pure culture medium served as a negative control. Every MIC was evaluated visually as the lowest concentration without visible growth. […] MBC was defined as the lowest compound’s concentration reducing the colony growth of the initial bacterial inoculum by ≥ 99.9%.

The subject of assay [2] is E. coli ATCC 35218. It counts as cell-based, Escherichia coli. The note with it: 24 h exposure, v/v, n = 3.
Excerpt: as §1, §2

Assay [3] concerns P. aeruginosa ATCC 27853. The class given is cell-based, Pseudomonas aeruginosa. The note with it: 24 h exposure; v/v; n = 3.
Excerpt: as §1, §2

For assay [4], the system named is Y. enterocolitica IP 864 O: 3. The class given is cell-based, Yersinia enterocolitica. The note with it: 24 h exposure; v/v; n = 3.
Excerpt: as §1, §2

Assay [5] relates to Candida Albicans SAIMC 562. The class given is cell-based. To be noted: 24 h exposure; v/v; n = 3.
Excerpt: as §1, with “The antimycotic activity was tested on Candida albicans (CBS 562, Utrecht, The Netherlands).” left out
as §2

Turning to `C[S+](C)[O-]` [DMSO, dimethyl sulfoxide], the MBC in assay [1] is above 25%; in assay [2] (in LBB) it was above 25%; in assay [2] (in MHB), above 25%; in assay [3], above 25%; in assay [4] it was 6.25%; in assay [5], 6.25%. Also, the MIC in assay [1] amounted to 12.5%; in assay [2] (in LBB), 12.5%; in assay [2] (in MHB), 12.5%; in assay [3], 6.25%; in assay [4], 3.125%; in assay [5], 6.25%.
For `CCO` [EtOH, ethanol], the MBC in assay [1], in assay [2] (in LBB), in assay [2] (in MHB), in assay [3], in assay [4] and in assay [5] was above 25% in each case. For the same compound, the MIC in assay [1], in assay [2] (in LBB), in assay [2] (in MHB), in assay [3], in assay [4] and in assay [5] was above 25% in each case.
Turning to “polyethylene glycol of average molecular weight 400 [PEG-400]”, the MBC in assay [1] was above 25%; in assay [2] (in LBB) it was above 25%; in assay [2] (in MHB), above 25%; in assay [3] it was above 25%; in assay [4], 12.5%; in assay [5], above 25%. Besides, the MIC in assay [1] was 25%; in assay [2] (in LBB) it was 25%; in assay [2] (in MHB) it was above 25%; in assay [3] it was 25%; in assay [4], 12.5%; in assay [5] it was above 25%.
